Data as given in US8222218B2, “Cyclopropanated carbohydrates” (Seton Hall University, priority 2008, dated 2012).
Where two headings read alike, the source gives them in different places.

How the values were obtained:
Type in all cases: in vivo
MES-induced seizures = assay: Maximal Electroshock Seizure (MES) test, mice; conditions: for responders at 30 mg/kg / responders at 100 mg/kg / responders at 300 mg/kg: Mus musculus, ip
Excerpt: The MES test is a model for generalized tonic-clonic seizures. The seizures are highly reproducible and electrophysiologically consistent with human seizures. The test provides information about a compound's ability to prevent the spread of seizure when all neuronal circuits of the brain are maximally active. 60 Hz of alternating current (50 mA in mice, 150 mA in rats) is applied for 2 seconds via corneal electrodes that have been treated with an electrolyte solution containing an anesthetic (0.5% tetracaine HCl). Mice are tested at a variety of intervals after an i.p. injection of […] solution of the test compound (commonly in a 0.5% solution of methylcellulose) at 30, 100, and 300 mg/kg doses. Rats are examined after a 30 mg/kg (per os, p.o.) dose that is applied in a volume of 0.04 mL/g. An animal is considered “protected” from MES-induced seizures upon removal of the hind limb extensor component of the seizure.
(§1) Male and female albino CF1 mice (18-25 g, Charles River, Portage, Mich.) and male albino Sprague-Dawley rats (275-300 g, kindling test; 100-150 g all other tests; Charles River, Raleigh, N.C.) were used as experimental animals.

[1] = tested on: metrazole-induced clonic seizures; assay: Subcutaneous Metrazole Seizure Threshold Test (scMET), mice; conditions: for responders at 30 mg/kg / responders at 100 mg/kg / responders at 300 mg/kg: Mus musculus, sc
Experimental: The subcutaneous injection of metrazole, which is a convulsant, produces clonic seizures in laboratory animals. The scMET test is designed to identify compounds that raise the seizure threshold of an animal. Mice are pretreated with test compound at 30, 100, and 300 mg/kg doses in a similar manner to the MES test. Rats are treated with a 50 mg/kg dose (p.o.). At the previously determined TPE of the test compound, the dose of metrazole that will induce convulsions in 97% of animals (CD97: 85 mg/kg mice) is injected into the loose fold of the skin in the midline of the neck. The animals are placed in isolation cages to minimize stress and observed for the next 30 minutes for the presence or absence of seizures. An episode of clonic spasms (approximately 3-5 seconds) of the fore and/or hindlimbs, jaws or vibrissae is taken as the endpoint.
as §1

[2] = Acute toxicity, minimal motor impairment (rotorod), mice; conditions: mice, rotorod; for TOX 30 0.5 h (animals toxic/tested) / TOX 30 4 h (animals toxic/tested): 30 mg/kg; for TOX 100 0.5 h (animals toxic/tested) / TOX 100 4 h (animals toxic/tested): 100 mg/kg; for TOX 300 0.5 h (animals toxic/tested) / TOX 300 4 h (animals toxic/tested): 300 mg/kg
Experimental: Toxicity was measured using the minimal motor impairment test described below.
Animals are monitored for overt signs of impaired neurological or muscular function to assess a compound's toxicity. In mice, the rotorod procedure is used to disclose minimal muscular or neurological impairment. When a mouse is placed on a rotating rod (6 rpm), the animal can maintain its equilibrium for long periods of time. The animal is considered toxic if it falls off the rotating rod three times during a 1 minute period. In rats, minimal motor deficit is indicated by ataxia, which is manifested by an abnormal, uncoordinated gait.

[3] = 0.5 h, read-out: MES 30 0.5 h (animals protected/tested)
[4] = 0.5 h, read-out: MES 100 0.5 h (animals protected/tested)
[5] = 0.5 h, read-out: MES 300 0.5 h (animals protected/tested)
[6] = 4 h, read-out: MES 30 4 h (animals protected/tested)
[7] = 4 h, read-out: MES 100 4 h (animals protected/tested)
[8] = 4 h, read-out: MES 300 4 h (animals protected/tested)
[9] = 0.4 h, read-out: scMET 30 0.4 h (animals protected/tested)
[10] = 0.4 h, read-out: scMET 100 0.4 h (animals protected/tested)
[11] = 0.4 h, read-out: scMET 300 0.4 h (animals protected/tested)
[12] = 0.5 h, read-out: scMET 30 0.5 h (animals protected/tested)
[13] = 0.5 h, read-out: scMET 100 0.5 h (animals protected/tested)
[14] = 0.5 h, read-out: scMET 300 0.5 h (animals protected/tested)
[15] = mice, i.p., 30 mg/kg, 0.5 h, read-out: MES 30 0.5 h (animals protected/tested)
[16] = mice, i.p., 30 mg/kg, 4 h, read-out: MES 30 4 h (animals protected/tested)
[17] = mice, i.p., 100 mg/kg, 0.5 h, read-out: MES 100 0.5 h (animals protected/tested)
[18] = mice, i.p., 100 mg/kg, 4 h, read-out: MES 100 4 h (animals protected/tested)
[19] = mice, i.p., 300 mg/kg, 0.5 h, read-out: MES 300 0.5 h (animals protected/tested)
[20] = mice, i.p., 300 mg/kg, 4 h, read-out: MES 300 4 h (animals protected/tested)
[21] = mice, 30 mg/kg, 0.4 h, read-out: scMET 30 0.4 h (animals protected/tested)
[22] = mice, 30 mg/kg, 0.5 h, read-out: scMET 30 0.5 h (animals protected/tested)
[23] = mice, 100 mg/kg, 0.4 h, read-out: scMET 100 0.4 h (animals protected/tested)
[24] = mice, 100 mg/kg, 0.5 h, read-out: scMET 100 0.5 h (animals protected/tested)
[25] = mice, 300 mg/kg, 0.4 h, read-out: scMET 300 0.4 h (animals protected/tested)
[26] = mice, 300 mg/kg, 0.5 h, read-out: scMET 300 0.5 h (animals protected/tested)

SMILES | responders at 30 mg/kg (MES-induced seizures; [3]) [%] | responders at 100 mg/kg (MES-induced seizures; [4]) [%] | TOX 30 0.5 h (animals toxic/tested) [2] | TOX 30 4 h (animals toxic/tested) [2] | TOX 100 0.5 h (animals toxic/tested) [2] | TOX 100 4 h (animals toxic/tested) [2] | TOX 300 0.5 h (animals toxic/tested) [2] | TOX 300 4 h (animals toxic/tested) [2] | responders at 30 mg/kg (MES-induced seizures; [15]) [%] | responders at 30 mg/kg (MES-induced seizures; [16]) [%] | responders at 100 mg/kg (MES-induced seizures; [17]) [%] | responders at 100 mg/kg (MES-induced seizures; [18]) [%] | responders at 300 mg/kg (MES-induced seizures; [19]) [%] | responders at 300 mg/kg (MES-induced seizures; [20]) [%] | responders at 30 mg/kg [1, 21] [%] | responders at 30 mg/kg [1, 22] [%] | responders at 100 mg/kg [1, 23] [%] | responders at 100 mg/kg [1, 24] [%] | responders at 300 mg/kg [1, 25] [%] | responders at 300 mg/kg [1, 26] [%] | further results
CCOC(=O)[C@@H]1[C@H]2O[C@@H]3CO[Si](C(C)(C)C)(C(C)(C)C)O[C@H]3/C(=N/O)[C@H]21 [Compound 4] | 0 | 0 | 0/4 | 0/2 | 0/8 | 1/4 | 0/4 | 0/2 |  |  |  |  |  |  |  |  |  |  |  |  | responders at 300 mg/kg (MES-induced seizures; [5]): 0%; responders at 30 mg/kg (MES-induced seizures; [6]): 0%; responders at 100 mg/kg (MES-induced seizures; [7]): 0%; responders at 300 mg/kg (MES-induced seizures; [8]): 0%; responders at 30 mg/kg [1, 9]: 0%; responders at 100 mg/kg [1, 10]: 0%; responders at 300 mg/kg [1, 11]: 0%; responders at 30 mg/kg [1, 12]: 0%; responders at 100 mg/kg [1, 13]: 0%; responders at 300 mg/kg [1, 14]: 0%
CCOC(=O)[C@@H]1[C@H]2O[C@@H]3CO[Si](C(C)(C)C)(C(C)(C)C)O[C@H]3[C@H](OS(=O)(=O)N(C)C)[C@H]21 [Compound 5, (1S,1as,2R,2aR,6aR,7aS)-4,4-di-tert-butyl-2-dimethylsulfamoyloxy-hexahydro-3,5,7-trioxa-4-sila-cyclopropa[b]naphthalene-1-carboxylic acid ethyl ester] | 0 | 0 | 0/4 | 0/2 | 0/8 | 0/4 | 1/4 | 0/2 |  |  |  |  |  |  |  |  |  |  |  |  | responders at 300 mg/kg (MES-induced seizures; [5]): 0%; responders at 30 mg/kg (MES-induced seizures; [6]): 0%; responders at 100 mg/kg (MES-induced seizures; [7]): 0%; responders at 300 mg/kg (MES-induced seizures; [8]): 0%; responders at 30 mg/kg [1, 9]: 0%; responders at 100 mg/kg [1, 10]: 0%; responders at 300 mg/kg [1, 11]: 0%; responders at 30 mg/kg [1, 12]: 0%; responders at 100 mg/kg [1, 13]: 0%; responders at 300 mg/kg [1, 14]: 0%
CCOC(=O)C1[C@@H]2[C@@H](O)[C@@H]3OC(C)(C)OC[C@H]3O[C@H]12 (stereo partly drawn) [Compound 6a, Ethyl (4aR,5aS,6aR,7R,7aS)-7-hydroxy-2,2-dimethylhexahydro-4H-cyclopropa[5,6]pyrano[3,2-d][1,3]dioxine-6-carboxylate] |  |  | 0/4 | 0/2 | 0/8 | 0/4 | 0/4 | 0/2 | 0 | 0 | 0 | 0 | 0 | 0 | 0 | 0 | 0 | 0 | 0 | 0 | 
CCOC(=O)C1[C@@H]2[C@@H](OS(=O)(=O)N(C)C)[C@@H]3OC(C)(C)OC[C@H]3O[C@H]12 (stereo partly drawn) [Compound 8a, Ethyl (4aR,5aS,6aS,7R,7aR)-7-[(dimethlylsulfamoyl)oxy]-2,2-dimethylhexahydro-4H-cyclopropa[5,6]pyrano[3,2-d][1,3]dioxine-6-carboxylate] |  |  | 0/4 | 0/2 | 0/8 | 0/4 | 1/4 | 0/2 |  |  |  |  |  |  |  |  |  |  |  |  | MES 30 0.5 h (animals protected/tested) (MES-induced seizures; mice, i.p., 30 mg/kg, 0.5 h): 0/1; MES 30 4 h (animals protected/tested) (MES-induced seizures; mice, i.p., 30 mg/kg, 4 h): 0/1; MES 100 0.5 h (animals protected/tested) (MES-induced seizures; mice, i.p., 100 mg/kg, 0.5 h): 0/3; MES 100 4 h (animals protected/tested) (MES-induced seizures; mice, i.p., 100 mg/kg, 4 h): 0/3; MES 300 0.5 h (animals protected/tested) (MES-induced seizures; mice, i.p., 300 mg/kg, 0.5 h): 0/1; MES 300 4 h (animals protected/tested) (MES-induced seizures; mice, i.p., 300 mg/kg, 4 h): 0/1; scMET 30 0.4 h (animals protected/tested) ([1]; mice, 30 mg/kg, 0.4 h): 0/1; scMET 30 0.5 h (animals protected/tested) ([1]; mice, 30 mg/kg, 0.5 h): 0/1; scMET 100 0.4 h (animals protected/tested) ([1]; mice, 100 mg/kg, 0.4 h): 0/1; scMET 100 0.5 h (animals protected/tested) ([1]; mice, 100 mg/kg, 0.5 h): 0/1; scMET 300 0.4 h (animals protected/tested) ([1]; mice, 300 mg/kg, 0.4 h): 0/1; scMET 300 0.5 h (animals protected/tested) ([1]; mice, 300 mg/kg, 0.5 h): 0/1
CCOC(=O)C1[C@@H]2[C@@H](OS(N)(=O)=O)[C@@H]3OC(C)(C)OC[C@H]3O[C@H]12 (stereo partly drawn) [Compound 8b, ethyl (4aR,5aS,6aS,7R,7aR)-2,2-dimethyl-7-(sulfamoyloxy)hexahydro-4H-cyclopropa[5,6]pyrano[3,2-d][1,3]dioxine-6-carboxylate] |  |  | 0/4 | 0/2 | 1/8 | 0/4 | 1/4 | 0/2 | 0 | 0 | 0 | 0 | 0 | 0 | 0 | 0 | 0 | 0 | 0 | 0 | 
CCOC(=O)[C@@H]1[C@H]2O[C@@H]3COC(C)(C)O[C@H]3[C@H](OC)[C@H]21 [Compound 9, Ethyl (4aR,5aS,6aS,7R,7aS)-7-methoxy-2.2-dimethylhexahydro-4H-cyclopropa[5,6]pyrano[3,2-d][1,3]dioxine-6-carboxylate] |  |  | 0/4 | 0/2 | 0/8 | 0/4 | 0/4 | 0/2 | 0 | 0 | 0 | 0 | 0 | 0 | 0 | 0 | 0 | 0 | 0 | 0 | 
